In patent US12251363B2, “Compositions to enhance a non-surgical medical treatment” (Anti-Plasmin Technologies, LLC, priority 2017, dated 2025):

Legend:
[1] = tested on: patients undergoing dermal filler procedures; experiment: Bruising study: tranexamic acid solutions applied before and after dermal filler procedures, 48-hour observation; assay type: in vivo, human
[2] = oral administration; cited from earlier work
[3] = tested on: patients receiving hyaluronic acid dermal filler; experiment: Non-surgical clinical use: tranexamic acid solution before and after injection of hyaluronic acid dermal filler, 318 patients; assay type: in vivo, human; settings: 3% (w/v) tranexamic acid solution before and after filler injection
From the text: Three patients of the 318 reported instances of bruising or swelling.

[4] = HPLC study to detect any binding interaction of tranexamic acid with hyaluronic acid polymer (ERACLEA product); assay type: physicochemical
Method: First a skin care product from ERACLEA® Skin Care containing 1% (w/v) hyaluronic acid polymer and preservatives was tested. […] The analysis was carried out with fresh sample preparations being mixed and immediately injected into the HPLC system for analysis as well as sample preparations that were mixed and allowed to stand for a 20 minute time period prior to injection.
(§1) Similar to the above-mentioned study, the JUVEDERM® analysis was carried out with fresh sample preparations being immediately injected for analysis as well as sample preparations that were allowed to stand for a 20 minute time period prior to injection.
The sample preparation was prepared as follows: 10 mg of hyaluronic acid polymer (Source: ERACLEA®, pure hydration) was weighed in 2.5 mL of auto sampler vial and diluted to 1000 μt volume by adding an aqueous solution of 60:40 ratio, by volume, distilled water/acetonitrile and used as a standard stock solution.
The HPLC was conducted with a flow rate of 1 mL/min, a sample concentration of 10 mg/mL, and an injection volume of 10 μt, a wave length of 205 nm and a solvent system of 40:60 ratio, by volume, acetonitrile/distilled water.

[5] = HPLC study of interaction of tranexamic acid with hyaluronic acid dermal filler (JUVEDERM); assay type: physicochemical; settings: freshly prepared 3% (w/v) tranexamic acid in filler; injected immediately vs after standing 20 min
Method: as §1
The sample preparation was prepared as follows: 13 mg of filler (Source: JUVEDERM® Vollere XC) was weighed in a 2.5 mL vial and diluted to 1000 μt volume by adding an aqueous solution of 60:40 ratio, by volume, distilled water/acetonitrile.

[6] = 20% (w/v) tranexamic acid solution vs without
[7] = 20% (w/v) tranexamic acid solution, when bruising occurred

NC[C@H]1CC[C@H](C(=O)O)CC1 [tranexamic acid]
mild to no bruising combined, patients ([1]; 20% (w/v) tranexamic acid solution): 82% | more patients experienced no bruising vs filler labeling ([1]; 20% (w/v) tranexamic acid solution vs labeling of JUVEDERM VOLLURE XC and VOLBELLA XC): about 28% | improvement in bruising incidence ([1]; 20% (w/v) tranexamic acid solution vs other series, 48-hour observation): three-fold | improvement in mild bruising [1, 6]: 80% | improvement in mild to no bruising combined [1, 6]: 58% | improvement in severe bruising [1, 6]: 100% | patients experienced no bruising ([1]; 20% (w/v) tranexamic acid solution, 48-hour observation): Approximately 45% | patients bruised severely [1, 7]: no patients | patients only bruised mildly [1, 7]: 67% | patients experienced no bruising ([1]; other series of patients (3%, 5%, 10% (w/v), and 3% plus home use for two days), 48-hour observation): about 15% | fraction of the TA ingested that does not enter the blood [2]: about half | patients reported instances of bruising or swelling (count) [3]: Three | patients reported instances of bruising and swelling ([3]; 318 patients, about 1 year): Less than 1% | interaction between tranexamic acid and hyaluronic acid polymer when mixed in solution ([4]; 3% (w/v) tranexamic acid in solution containing 1% (w/v) hyaluronic acid polymer, mixed several weeks prior to HPLC): no interaction | interaction between tranexamic acid and hyaluronic acid polymer ([4]; freshly prepared 3% (w/v) tranexamic acid in hyaluronic acid polymer, injected immediately vs after standing 20 min): no interaction | interaction between tranexamic acid and the hyaluronic acid in the ERACLEA product ([4]; left in contact for several weeks (0.5% and 3% (w/v) tranexamic acid)): no interaction | interaction between tranexamic acid and JUVEDERM filler [5]: no interaction
